# Test results reported in EP0545103A1, “Insecticidal, acaricidal and molluscicidal 1-(substituted) thioalkylpyrroles” (priority 1991, dated 1993).
# Legend:
# Format in all cases: in vivo
# [1] = tested on: Heliothis virescens, egg, tobacco budworm; experiment: Tobacco budworm egg test, dipped cotton leaf and eggs; design: key: 0: no effect; 10-25% kill; 26-35% kill; 36-45% kill; 46-55% kill; 56-65% kill; 66-75% kill; 76-85% kill; 86-99% kill; 9: 100% kill; conditions: mortality rating after 3 days
# Method: (§1) Test solutions are prepared by dissolving the test compound in a 35% acetone in water mixture to give a concentration of 10,000 ppm. Subsequent dilutions are made with water as needed.
# Heliothis virescens, egg, tobacco budworm
# A young cotton leaf about 6-7cm in length is dipped in an agitated test suspension for about 3 seconds. Eggs are collected on a cheesecloth and the cloth is cut into 10-20mm squares, each containing approximately 50-100 eggs which are 6-30 hours old. The egg-containing cheesecloth square is similarly dipped in a test suspension and placed on a treated cotton leaf. The combination is dried in a hood and then placed in an 8 ounce Dixie® cup #2168-ST (240ml volume, 6cm tall, 9.5cm top diameter, 8.0cm bottom diameter) into which a 5cm length of damp dental wick has been placed. The cup is covered with a clear plastic lid and held for 3 days, after which mortality counts are made.
# (§2) All of the above tests are rated according to the rating scale shown below.
# [2] = tested on: Spodoptera eridania, 3rd instar larvae, southern armyworm; experiment: Southern armyworm 3rd instar test, dipped limabean leaf; design: key: 0: no effect; 10-25% kill; 26-35% kill; 36-45% kill; 46-55% kill; 56-65% kill; 66-75% kill; 76-85% kill; 86-99% kill; 9: 100% kill; conditions: for ARMYWORM Day 3: rating at 3 days; for ARMYWORM Day 5: rating at 5 days
# Method: as §1
# Spodoptera eridania, 3rd instar larvae, southern armyworm
# A Sieva limabean leaf expanded to 7-8 cm in length is dipped in the test solution with agitation for 3 seconds and allowed to dry in a hood. The leaf is then placed in a 100 x 10 mm petri dish containing a damp filterpaper on the bottom and ten 3rd instar caterpillars. At 3 and 5 days, observations are made of mortality, reduced feeding, or any interference with normal molting.
# as §2
# [3] = tested on: Spodoptera eridania, 3rd instar larvae, southern armyworm; experiment: Southern armyworm 7-day residual test; design: key: 0: no effect; 10-25% kill; 26-35% kill; 36-45% kill; 46-55% kill; 56-65% kill; 66-75% kill; 76-85% kill; 86-99% kill; 9: 100% kill; conditions: R designates Residual: 7-day residual foliage, concentration not given; for ARMYWORM Day 3 R: rating at 3 days; for ARMYWORM Day 5 R: rating at 5 days
# Method: as §1
# Spodoptera eridania, 3rd instar larvae, southern armyworm, 7-day residual
# The limabean leaves treated in the above test are maintained under high intensity lamps in the greenhouse for 7 days. These lamps duplicate the effects of a bright sunny day in June in New Jersey and are kept on for 14 hour day length. After 7 days, the foliage is sampled and assayed as in the above-said test.
# as §2
# [4] = tested on: Spodoptera eridania, 3rd instar larvae, southern armyworm; experiment: Southern armyworm systemic uptake (stem systemic) test; design: key: 0: no effect; 10-25% kill; 26-35% kill; 36-45% kill; 46-55% kill; 56-65% kill; 66-75% kill; 76-85% kill; 86-99% kill; 9: 100% kill; conditions: cut stem in emulsion 3 days
# Text: Spodoptera eridania, systemic uptake, 3rd instar larvae, southern armyworm
# Subsequent 10-fold dilutions are made with water as needed. Sieva limabean plants, with the primary leaves expanded to a length of 7-8 cm, are cut off at least 3 cm above the soil level to avoid contamination with soil bacteria which will cause decay of the stem during the test. The cut stem is placed in the test emulsion and wrapped with a bit of cotton to hold the stem off the bottom of the bottle and to limit evaporation. The treated stem is thus maintained for 3 days at 27° C to allow the test compound to be taken up into the plant. Following this, one leaf is removed from the plant and placed in a 100 x 10 mm petri dish with 10 southern armyworms as described above. Mortality counts and observations of feeding damage are made 3 and 5 days later.
# as §2
# [5] = tested on: Diabrotic undecimpunctata howardi, 3rd instar southern corn rootworm; experiment: Southern corn rootworm soil test; design: key: 0: no effect; 10-25% kill; 26-35% kill; 36-45% kill; 46-55% kill; 56-65% kill; 66-75% kill; 76-85% kill; 86-99% kill; 9: 100% kill; conditions: mortality rating after 6 days
# Method: Diabrotic undecimpunctata howardi, 3rd instar southern corn rootworm
# One cc of fine talc is placed in a 30 mL wide-mouth screw-top glass jar. One mL of the appropriate acetone test solution is pipetted onto the talc so as to provide 1.25 and 0.25 mg of active ingredient per jar. The jars are set under a gentle air flow until the acetone is evaporated. The dried talc is loosened, 1 cc of millet seed is added to serve as food for the insects and 25 mL of moist soil is added to each jar. The jar is capped and the contents thoroughly mixed on a Vortex Mixer. Following this, ten 3rd instar rootworms are added to each jar and the jars are loosely capped to allow air exchange for the larvae. The treatments are held for 6 days when mortality counts are made. Missing larvae are presumed dead, since they decompose rapidly and can not be found. The concentrations used in this test correspond approximately to 50 and 10 kg/ha, respectively.
# as §2
# [6] = tested on: Tetranychus urticae (OP-resistant strain), 2-spotted spider mite; experiment: 2-spotted spider mite test, dipped infested limabean plants; design: key: 0: no effect; 10-25% kill; 26-35% kill; 36-45% kill; 46-55% kill; 56-65% kill; 66-75% kill; 76-85% kill; 86-99% kill; 9: 100% kill
# Method: as §1
# Tetranychus urticae (OP-resistant strain), 2-spotted spider mite
# Sieva limabean plants with primary leaves expanded to 7-8 cm are selected and cut back to one plant per pot. A small piece is cut from an infested leaf taken from the main colony and placed on each leaf of the test plants. This is done about 2 hours before treatment to allow the mites to move over to the test plant and to lay eggs. The size of the cut, infested leaf is varied to obtain about 100 mites per leaf. At the time of test treatment, the piece of leaf used to transfer the mites is removed and discarded. The newly mite-infested plants are dipped in the test solution for 3 seconds with agitation and set in the hood to dry. After 2 days one leaf is removed and mortality counts are made. After 5 days, another leaf is removed and observations are made of mortality of the eggs and/or newly emerged nymphs.
# as §2
# [7] = tested on: Aphis fabae, mixed instar, bean aphid; experiment: Bean aphid spray test on nasturtium; design: key: 0: no effect; 10-25% kill; 26-35% kill; 36-45% kill; 46-55% kill; 56-65% kill; 66-75% kill; 76-85% kill; 86-99% kill; 9: 100% kill; conditions: 100 ppm
# Method: as §1
# Aphis fabae, mixed instar, bean aphid
# Pots containing single nasturtium plants (Tropaeolum sp.) about 5 cm tall are infested with about 100-200 aphids one day prior to treatment. Each pot is sprayed with the test solution for 2 revolutions of a 4 rpm turntable in a hood, using a #154 DeVilbiss atomizer. The spray tip is held about 15 cm from the plant and the spray directed so as to give complete coverage of the plants and the aphids. The sprayed pots are set on their sides on white enamel trays and mortality estimates are made after 2 days.
# as §2
# [8] = tested on: Empoasca abrupta, adult, western potato leafhopper; experiment: Western potato leafhopper systemic uptake test; conditions: 100 ppm; systemic uptake; rating scale 0-9
# Method: Empoasca abrupta, adult, western potato leafhopper Systemic Uptake
# An emulsion containing 0.1 gm of the test material, 0.2 gm of Emulphor EL-620® emulsifier, 10 mL of acetone and 90 mL of water is prepared and diluted 10-fold with water to give a 100 ppm emulsion. Subsequent 10-fold dilutions are made with water as needed. Sieva limabean plants, with the primary leaves expanded to a length of 7-8 cm, are cut off at least 3 cm above the soil level to avoid contamination with soil bacteria which will cause decay of the stem during the test. The cut stem is placed in the test emulsion and wrapped with a bit of cotton to hold the stem off the bottom of the bottle and to limit evaporation. The treated stem is maintained for 3 days at 27°C to allow the test compound to be taken up into the plant. Following this, one leaf is removed from the plant and placed in a 100 x 10 mm petri dish containing a moist filter paper and about 10 adult leafhoppers as described above. Mortality counts are made after 2 days.
# as §2
# [9] = tested on: Heliothis virescens, 3rd instar tobacco budworm; experiment: Tobacco budworm 3rd instar test, dipped cotton cotyledons; design: key: 0: no effect; 10-25% kill; 26-35% kill; 36-45% kill; 46-55% kill; 56-65% kill; 66-75% kill; 76-85% kill; 86-99% kill; 9: 100% kill; conditions: mortality rating after 3 days
# Method: as §1
# Heliothis virescens, 3rd instar tobacco budworm
# Cotton cotyledons are dipped in the test solution and allowed to dry in a hood. When dry, each is cut into quarters and ten sections are placed individually in 30 mL plastic medicine cups containing a 5-7mm long piece of damp dental wick. One 3rd instar caterpillar is added to each cup and the cup is sealed with MYLAR® film. Treatments are maintained for 3 days before a mortality count and observation of reduction in feeding damage are made.
# as §2
# [10] = tested on: Empoasca abrupta, adult, western potato leafhopper; experiment: Western potato leafhopper contact test, dipped limabean leaf; design: key: 0: no effect; 10-25% kill; 26-35% kill; 36-45% kill; 46-55% kill; 56-65% kill; 66-75% kill; 76-85% kill; 86-99% kill; 9: 100% kill; conditions: mortality rating after 2 days
# Method: as §1
# Empoasca abrupta, adult, western potato leafhopper
# A Sieva limabean leaf about 5 cm long is dipped in the test solution for 3 seconds with agitation and placed in a hood to dry. The treated leaf is placed in a 100 x 10 mm petri dish containing a moist filter paper and about 10 adult leafhoppers are added. After 2 days, mortality counts are made.
# as §2
# [11] = 300 ppm, adult mites, rating scale 0-9
# [12] = 300 ppm, mite eggs, rating scale 0-9
# [13] = 300 ppm, mite nymphs, rating scale 0-9
SMILES,TOBACCO BUDWORM Egg ([1]; 100 ppm),TOBACCO BUDWORM Egg ([1]; 1000 ppm),ARMYWORM Day 3 ([2]; 10 ppm),ARMYWORM Day 5 ([2]; 10 ppm),ARMYWORM Day 3 ([2]; 100 ppm),ARMYWORM Day 5 ([2]; 100 ppm),ARMYWORM Day 3 ([2]; 1000 ppm),ARMYWORM Day 5 ([2]; 1000 ppm),ARMYWORM Day 3 R [3],ARMYWORM Day 5 R [3],ARMYWORM Stem Sys [4],SOUTHERN CORN ROOTWORM ([5]; 50 (ppm as headed)),"OP-RESISTANT MITES Adult [6, 11]","OP-RESISTANT MITES Egg [6, 12]","OP-RESISTANT MITES Nymph [6, 13]",APHIDS ([7]; rating scale 0-9),further results
N#Cc1c(Br)c(C(F)(F)F)n(CSC2=NCCCCN2)c1-c1ccc(Cl)cc1 [Example 11],3 (36-45% kill),5 (56-65% kill),9 (100% kill),9 (100% kill),9 (100% kill),9 (100% kill),9 (100% kill),9 (100% kill),9 (100% kill),9 (100% kill),9 (100% kill),0,0,0,0,0,LEAFHOPPER Systemic [8]: 9 (100% kill)
CCN=C(NCC)SCn1c(-c2ccc(Cl)cc2)c(C#N)c(Br)c1C(F)(F)F [Example 12],,0,9 (100% kill),9 (100% kill),9 (100% kill),9 (100% kill),9 (100% kill),9 (100% kill),9 (100% kill),9 (100% kill),0,,0,0,0,0,SOUTHERN CORN ROOTWORM ([5]; 1 (ppm as headed)): 0
N#Cc1c(Br)c(Br)n(CSCc2ccccc2)c1Br [Example 40],,0,0,0,0,0,9 (100% kill),9 (100% kill),0,,0,0,,,,,TOBACCO BUDWORM 3rd Instar ([9]; 100 ppm): 0; TOBACCO BUDWORM 3rd Instar ([9]; 1000 ppm): 0
N#Cc1c(Br)c(C(F)(F)F)n(CSC2=NCCCN2)c1-c1ccc(Cl)cc1 [Example 8],0,0,0,,9 (100% kill),,9 (100% kill),,9 (100% kill),9 (100% kill),9 (100% kill),0,,,,,"OP-RESISTANT MITES Adult ([6]; 10 ppm, mortality rating after 2 days): 0; OP-RESISTANT MITES Nymph ([6]; 10 ppm, rating after 5 days): 0; OP-RESISTANT MITES Adult ([6]; 100 ppm, mortality rating after 2 days): 9 (100% kill); OP-RESISTANT MITES Nymph ([6]; 100 ppm, rating after 5 days): 8 (86-99% kill); OP-RESISTANT MITES Adult ([6]; 300 ppm, mortality rating after 2 days): 9 (100% kill); OP-RESISTANT MITES Egg ([6]; 300 ppm, rating after 5 days): 0; OP-RESISTANT MITES Nymph ([6]; 300 ppm, rating after 5 days): 0; APHIDS ([7]; spray, mortality rating after 2 days): 0; LEAFHOPPER Contact ([10]; 10 ppm): 0; LEAFHOPPER Contact ([10]; 100 ppm): 8 (86-99% kill)"
